System: 362531-283-R-J2-PDC complex spheroid viability
Assay: Anticancer human tumor 362531-283-R-J2-PDC patient-derived colon adenocarcinoma cell line growth inhibition [RAS]
Conditions: for IC50: curve of first compound; for viability, T/C: stronger effect = lower value; active = viability on the fitted dose curve at most 10% of control; inactive = the rest
Summary of the method: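 Tumour cells grown as complex spheroids with HUVEC endothelial cells and mesenchymal stem cells, treated with RAS pathway inhibitor combinations. Each agent spans half-log steps from near clinical Cmax, or 10 microM where Cmax is unknown.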

[1] = second compound 0.000949 µM, first compound 0.000949 µM
[2] = second compound 0.000949 µM, first compound 0.003 µM
[3] = second compound 0.000949 µM, first compound 0.00949 µM
[4] = second compound 0.000949 µM, first compound 0.03 µM
[5] = second compound 0.000949 µM, first compound 0.0949 µM
[6] = second compound 0.000949 µM, first compound 0.3 µM
[7] = second compound 0.003 µM, first compound 0.000949 µM
[8] = second compound 0.003 µM, first compound 0.003 µM
[9] = second compound 0.003 µM, first compound 0.00949 µM
[10] = second compound 0.003 µM, first compound 0.03 µM
[11] = second compound 0.003 µM, first compound 0.0949 µM
[12] = second compound 0.003 µM, first compound 0.3 µM
[13] = second compound 0.00949 µM, first compound 0.000949 µM
[14] = second compound 0.00949 µM, first compound 0.003 µM
[15] = second compound 0.00949 µM, first compound 0.00949 µM
[16] = second compound 0.00949 µM, first compound 0.03 µM
[17] = second compound 0.00949 µM, first compound 0.0949 µM
[18] = second compound 0.00949 µM, first compound 0.3 µM
[19] = second compound 0.03 µM, first compound 0.000949 µM
[20] = second compound 0.03 µM, first compound 0.003 µM
[21] = second compound 0.03 µM, first compound 0.00949 µM
[22] = second compound 0.03 µM, first compound 0.03 µM
[23] = second compound 0.03 µM, first compound 0.0949 µM
[24] = second compound 0.03 µM, first compound 0.3 µM
[25] = second compound 0.0949 µM, first compound 0.000949 µM
[26] = second compound 0.0949 µM, first compound 0.003 µM
[27] = second compound 0.0949 µM, first compound 0.00949 µM
[28] = second compound 0.0949 µM, first compound 0.03 µM
[29] = second compound 0.0949 µM, first compound 0.0949 µM
[30] = second compound 0.0949 µM, first compound 0.3 µM
[31] = second compound 0.3 µM, first compound 0.000949 µM
[32] = second compound 0.3 µM, first compound 0.003 µM
[33] = second compound 0.3 µM, first compound 0.00949 µM
[34] = second compound 0.3 µM, first compound 0.03 µM
[35] = second compound 0.3 µM, first compound 0.0949 µM
[36] = second compound 0.3 µM, first compound 0.3 µM
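Note: spheroids exposed to the agents for 7 days before readout.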
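Throughout, for viability, T/C: luminescence viability as percent of DMSO vehicle control wells.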

C=CC(=O)N1CCN(c2nc(OCC3CCCN3C)nc3c(F)c(-c4nc(N)cc(C)c4C(F)(F)F)c(Cl)cc23)C(C)C1 (stereo unspecified) + CCn1c(-c2cc(N3CCN(C)CC3)cnc2C(C)OC)c2c3cc(ccc31)-c1csc(n1)CC(NC(=O)C1CC1C)C(=O)N1CCCC(N1)C(=O)OCC(C)(C)C2
inactive: viability, T/C (second compound 0.000949 µM, first compound 0.00316 µM) 101% | viability, T/C (second compound 0.000949 µM, first compound 0.01 µM) 100% | viability, T/C (second compound 0.000949 µM, first compound 0.0316 µM) 107% | viability, T/C (second compound 0.000949 µM, first compound 0.1 µM) 92.5% | viability, T/C (second compound 0.000949 µM, first compound 0.316 µM) 94.3% | viability, T/C (second compound 0.000949 µM, first compound 1 µM) 103% | viability, T/C (second compound 0.003 µM, first compound 0.00316 µM) 107% | viability, T/C (second compound 0.003 µM, first compound 0.01 µM) 103% | viability, T/C (second compound 0.003 µM, first compound 0.0316 µM) 97% | viability, T/C (second compound 0.003 µM, first compound 0.1 µM) 92% | viability, T/C (second compound 0.003 µM, first compound 0.316 µM) 104% | viability, T/C (second compound 0.003 µM, first compound 1 µM) 91.7% | viability, T/C (second compound 0.00949 µM, first compound 0.00316 µM) 93.7% | viability, T/C (second compound 0.00949 µM, first compound 0.01 µM) 108% | viability, T/C (second compound 0.00949 µM, first compound 0.0316 µM) 104% | viability, T/C (second compound 0.00949 µM, first compound 0.1 µM) 99.1% | viability, T/C (second compound 0.00949 µM, first compound 0.316 µM) 108% | viability, T/C (second compound 0.00949 µM, first compound 1 µM) 106% | viability, T/C (second compound 0.03 µM, first compound 0.00316 µM) 87.8% | viability, T/C (second compound 0.03 µM, first compound 0.01 µM) 104% | viability, T/C (second compound 0.03 µM, first compound 0.0316 µM) 86.8% | viability, T/C (second compound 0.03 µM, first compound 0.1 µM) 81.1% | viability, T/C (second compound 0.03 µM, first compound 0.316 µM) 95.7% | viability, T/C (second compound 0.03 µM, first compound 1 µM) 101% | viability, T/C (second compound 0.0949 µM, first compound 0.00316 µM) 88% | viability, T/C (second compound 0.0949 µM, first compound 0.01 µM) 87.5% | viability, T/C (second compound 0.0949 µM, first compound 0.0316 µM) 81.2% | viability, T/C (second compound 0.0949 µM, first compound 0.1 µM) 80.3% | viability, T/C (second compound 0.0949 µM, first compound 0.316 µM) 75.5% | viability, T/C (second compound 0.0949 µM, first compound 1 µM) 90.5% | viability, T/C (second compound 0.3 µM, first compound 0.00316 µM) 43% | viability, T/C (second compound 0.3 µM, first compound 0.01 µM) 57% | viability, T/C (second compound 0.3 µM, first compound 0.0316 µM) 41.2% | viability, T/C (second compound 0.3 µM, first compound 0.1 µM) 45.9% | viability, T/C (second compound 0.3 µM, first compound 0.316 µM) 45.9% | viability, T/C (second compound 0.3 µM, first compound 1 µM) 35%
< 3.16 nM: IC50 (second compound 0.3 µM)
> 1000 nM: IC50 (second compound 0.000949 µM) | IC50 (second compound 0.003 µM) | IC50 (second compound 0.00949 µM) | IC50 (second compound 0.03 µM) | IC50 (second compound 0.0949 µM)

CC1(C)CCC(Nc2ncc(C(F)(F)F)c(-c3c[nH]c4c(P(C)(C)=O)c(C#N)ccc34)n2)CN1 (stereo unspecified) + CCn1c(-c2cc(N3CCN(C)CC3)cnc2C(C)OC)c2c3cc(ccc31)-c1csc(n1)CC(NC(=O)C1CC1C)C(=O)N1CCCC(N1)C(=O)OCC(C)(C)C2
inactive: viability, T/C [1] 104% | viability, T/C [2] 97.3% | viability, T/C [3] 100% | viability, T/C [4] 99.7% | viability, T/C [5] 93% | viability, T/C [6] 95.1% | viability, T/C [7] 104% | viability, T/C [8] 102% | viability, T/C [9] 104% | viability, T/C [10] 97.1% | viability, T/C [11] 101% | viability, T/C [12] 95.3% | viability, T/C [13] 103% | viability, T/C [14] 110% | viability, T/C [15] 101% | viability, T/C [16] 100% | viability, T/C [17] 105% | viability, T/C [18] 104% | viability, T/C [19] 101% | viability, T/C [20] 107% | viability, T/C [21] 93.7% | viability, T/C [22] 92.9% | viability, T/C [23] 98.6% | viability, T/C [24] 98.5% | viability, T/C [25] 85% | viability, T/C [26] 82% | viability, T/C [27] 75.9% | viability, T/C [28] 82.2% | viability, T/C [29] 82.2% | viability, T/C [30] 102% | viability, T/C [31] 40.9% | viability, T/C [32] 52% | viability, T/C [33] 60.3% | viability, T/C [34] 58.7% | viability, T/C [35] 68.5% | viability, T/C [36] 76.8%
> 300 nM: IC50 (second compound 0.000949 µM) | IC50 (second compound 0.003 µM) | IC50 (second compound 0.00949 µM) | IC50 (second compound 0.03 µM) | IC50 (second compound 0.0949 µM)
< 0.949 nM: IC50 (second compound 0.3 µM)

CCc1c2c(nc3ccc(O)cc13)-c1cc3c(c(=O)n1C2)COC(=O)[C@]3(O)CC + CCn1c(-c2cc(N3CCN(C)CC3)cnc2C(C)OC)c2c3cc(ccc31)-c1csc(n1)CC(NC(=O)C1CC1C)C(=O)N1CCCC(N1)C(=O)OCC(C)(C)C2
inactive: viability, T/C [1] 94.3% | viability, T/C [2] 90.9% | viability, T/C [3] 80.9% | viability, T/C [4] 61.4% | viability, T/C [5] 26.2% | viability, T/C [6] 16.4% | viability, T/C [7] 97.5% | viability, T/C [8] 99.7% | viability, T/C [9] 75.1% | viability, T/C [10] 61.8% | viability, T/C [11] 23.4% | viability, T/C [12] 19.2% | viability, T/C [13] 101% | viability, T/C [14] 97.1% | viability, T/C [15] 74.4% | viability, T/C [16] 63.6% | viability, T/C [17] 26.9% | viability, T/C [18] 12.6% | viability, T/C [19] 94.3% | viability, T/C [20] 89.1% | viability, T/C [21] 69.4% | viability, T/C [22] 59.5% | viability, T/C [23] 25.3% | viability, T/C [25] 76.8% | viability, T/C [26] 65.3% | viability, T/C [27] 61.4% | viability, T/C [28] 33.8% | viability, T/C [29] 14.2% | viability, T/C [31] 33.5% | viability, T/C [32] 45.4% | viability, T/C [33] 17.2% | viability, T/C [34] 13.4%
42.1 nM: IC50 (second compound 0.000949 µM)
35.8 nM: IC50 (second compound 0.03 µM)
active: viability, T/C [24] 7.44% | viability, T/C [30] 5.26% | viability, T/C [35] 5.23% | viability, T/C [36] 2.69%
14.4 nM: IC50 (second compound 0.0949 µM)
37.8 nM: IC50 (second compound 0.003 µM)
41.4 nM: IC50 (second compound 0.00949 µM)
< 0.949 nM: IC50 (second compound 0.3 µM)

— PubChem BioAssay AID2060909 (Molecular Pharmacology Branch, DTP, NCI, 2025)
